Assay results published in patent publication US20130267544A1, “Use of LP-PLA2 Inhibitors in the Treatment and Prevention of Eye Diseases” (priority 2010, published 2013).
Entries after “also recorded” stand apart in the source; their conditions may differ.

Columns and labels:
Lp-PLA2 = Lp-PLA2 (Oryctolagus cuniculus, UniProt G1SE06); details: rabbits on cholesterol/copper diet, 10 mg/kg daily s.c. from day 1-72
Protocol: 3-4 month SPF male New Zealand White rabbits were purchased from Covance (Denver, Pa.), individually housed and had ad libitum access to rabbit chow and water on a 12/12 h light/dark cycle. Experiments were repeated twice with animals arriving 3 weeks apart. Rabbits were randomly assigned to five treatment groups with a sample size of 8 animals per group. 32 Rabbits were placed on cholesterol/copper diet and 8 rabbits fed normal chow. Cholesterol/copper diet consisted of 160 g per day of commercially produced diet (Purina Mills High Fibre Diet) supplemented or not with 2% cholesterol. Copper sulphate (0.12 mg/l) was added to drinking water of rabbits assigned the cholesterol supplemented diet.
Animals were weighed and drug or vehicle administration delivered at 3 ml/kg to affect a 10 mg/kg dose by subcutaneous injection in the neck fold.
Six groups of animals consisting of 8 animals were assigned to the following treatment groups. Groups 1-5 were maintained on the cholesterol supplemented diet with copper sulphate in the drinking water.
Lp-PLA2 activity was measured in plasma samples collected at days 1, 29, 32 and 72 using proprietary GSK techniques.

[1] = tested on: STZ-induced diabetic SD rats; details: first study, 10 mg/kg/d i.p. from day 4
Protocol: Male SD rats, 6 weeks of age and weighing 180-200 g, were used in this study; the rats had free access to food and water and were maintained in cages in an environmentally controlled room with a 12 hour light-dark cycle. Diabetes was induced by following dosing of animals with streptozotocin (50 mg/kg/day dosed i.p. for each of the first 3 days of the protocol) in 10 mM sodium citrate-buffer pH 4.6. […] Animals which maintained an elevated blood glucose level of over 9 mM were deemed diabetic.
The retinal images were scanned by a commercially available Fourier-domain OCT (RTVue-100; version 2.1; Optovue, Inc., California, USA). Super-luminescent diode light source with a central wavelength of 840 nm and a full bandwidth of 50 nm was adapted to the OCT. The retinal thickness was accessed by the automatic software of RTVue scanner with manual adjusting. The retinal thickness was defined from layer of retinal pigment eitheluim (RPE) to retinal ganglion cell layer (GCL).
Two separate studies were conducted. Retinal images were taken on experimental day 4, 10, 13, 17, 22, 28 and 31 for the second study and day 0, 4, 7, 10, 14 and 18 for the first study. Animals were anesthetized by inhalation of 5% isoflourane and pupils were diluted with 1% tropicamide and 1% phenylephrine. Prior to OCT analysis animals were fixed on a support frame and the eye to be imaged positioned to align with the center of the scan beam perpendicular to the fundus. […] After imaging, the animals were recovered and returned to cages. Retinal thickness from six time points of OCT measurement were analyzed by repeated measures analysis of variance (ANOVA) using Prism software. […] All data were expressed as mean value±SEM.

rat Lp-PLA2 enzyme = details: compared with Lp-PLA2 inhibitor '495
[2] = tested on: rat brain microvascular endothelial cells co-cultured with rat brain astrocytes; experiment: Permeability of Lucifer yellow in BMEC-astrocyte co-cultures; assay type: cell-based; details: lysoPC 0.3-10 ug/mL added to apical side, 90 min
Protocol: (§1) Three-week-old Sprague-Dawley (SD) rats were sacrificed by cervical dislocation. After white matter, meninges and macroscopic pial vessels were removed, the gray matter was thoroughly triturated in ice-cold Dulbecco's modified Eagle's medium (DMEM). The tissue was then digested in DMEM (7 ml for 5 rat brains) containing collagenease II (1 mg/ml) and DNase I (39 U/ml) at 37° C. for 1 h with shaking speed of 130 rpm. The digested tissue was diluted with the same volume of DMEM and centrifuged at 1000 g for 8 min at 4° C. The cell pellet was re-suspended in a 20% bovine serum albumin (BSA)-DMEM solution and centrifuged at 1000 g for 20 min at 4° C. The microvessels obtained in the pellet were further digested with collagenase-dispase (1 mg/mL) and DNase I (39 U/ml) in DMEM (3 ml for 5 rat brains) for 0.5 h at 37° C. […] After 2 days of puromycin treatment, the culture medium was replaced with supplemented EBM®2 for another 2 days of maintenance before they were ready for construction of co-cultured model. […]
(§2) The astrocytes suspended in 10% FBS-DMEM were seeded on to Poly-L-lysine coated 24-well culture plate at passage between 1 and 4 at a density of 1.5×10^4/cm^2. […] Transendothelial electrical resistance (TEER) of the monolayers were determined everyday using Millicell-ERS (Millipore, Bedford, Mass.) and when the TEER >150 Ω·cm^2, the monolayer was ready for transport experiment. […]

[3] = tested on: rat brain microvascular endothelial cells co-cultured with rat brain astrocytes; experiment: Transendothelial electrical resistance of BMEC monolayers; assay type: cell-based; details: after addition of lysoPC to endothelial monolayers
Protocol: as §1, §2

[4] = tested on: DMHC pigs (blood-brain barrier); experiment: IgG leak from brain blood vessels (BBB permeability) in diabetic/hypercholesterolemic pigs; assay type: in vivo, pig; details: 10 mg/kg/day orally for 24 weeks
Protocol: (§3) Yorkshire domestic farm pigs (˜25-35 kg; Archer Farms) were induced for diabetes with a single intravenous injection of 125 mg/kg streptozotocin (Mohler et al., 2008). Blood glucose and cholesterol were closely monitored. Three days after diabetes induction, a hyperlipidemic diet was used to achieve hypercholesterolemia with serum cholesterol concentrations clamped between 400 and 800 mg/dl. Because pigs have a variable serum cholesterol response to a high cholesterol diet, cholesterol concentrations were checked every two months. […]
(§4) Specimens from the brains of 29 pigs, included 3 untreated controls; 13 DMHC and 13 DMHC treated with Darapladib (Rx), were embedded in paraffin wax. Each brain specimen was serially sectioned, and the first section representing each sample was stained with Hematoxylin and Eosin (H+E) which permitted cortical from non-cortical regions based on differential staining to be determined. Full (large) face tissue blocks were used throughout this study in an effort to maximize the amount of tissue analyzed so as to favor subsequent quantification. The total areas (in sq. mm) of cortical and non-cortical brain tissue in each section were measured in H+E− stained sections using computer-assisted image analysis and Image Pro Plus software. […]

[5] = tested on: DMHC pigs (Abeta42 in cerebral cortex); experiment: Abeta42 amount and distribution in cerebral cortex of DMHC pig brain; assay type: in vivo; details: 10 mg/kg/day for 24 weeks
Protocol: as §3, §4

DM/HC pigs = experiment: Behavioural observation of DM/HC pigs; assay type: in vivo, pig; details: 10 mg/kg/day, vs DM/HC control animals
Protocol: Yorkshire domestic farm pigs (˜25-35 kg; Archer Farms) were induced for diabetes with a single intravenous injection of 125 mg/kg streptozotocin (Mohler et al., 2008). Blood glucose and cholesterol were closely monitored. Three days after diabetes induction, a hyperlipidemic diet was used to achieve hypercholesterolemia with serum cholesterol concentrations clamped between 400 and 800 mg/dl. Because pigs have a variable serum cholesterol response to a high cholesterol diet, cholesterol concentrations were checked every two months. One month after DMHC induction, pigs were randomly assigned into either a control group or a treatment group receiving 10 mg/kg/d orally of the selective Lp-PLA2 inhibitor Darapladib (GlaxoSmithKline). Pigs were sacrificed after 28 weeks after induction (that is, 24 weeks after initiation of treatment). At the time of completion of the study, there were 17 pigs in the control group and 20 in the Darapladib-treated group, as three pigs in the control group were excluded from analysis because of persistently elevated cholesterol levels. […] The specific experiment was published (Wilensky et al., 2008) but no vascular leak data was presented in that publication.

Chain of Lp-PLA2 (G1SE06 22-423): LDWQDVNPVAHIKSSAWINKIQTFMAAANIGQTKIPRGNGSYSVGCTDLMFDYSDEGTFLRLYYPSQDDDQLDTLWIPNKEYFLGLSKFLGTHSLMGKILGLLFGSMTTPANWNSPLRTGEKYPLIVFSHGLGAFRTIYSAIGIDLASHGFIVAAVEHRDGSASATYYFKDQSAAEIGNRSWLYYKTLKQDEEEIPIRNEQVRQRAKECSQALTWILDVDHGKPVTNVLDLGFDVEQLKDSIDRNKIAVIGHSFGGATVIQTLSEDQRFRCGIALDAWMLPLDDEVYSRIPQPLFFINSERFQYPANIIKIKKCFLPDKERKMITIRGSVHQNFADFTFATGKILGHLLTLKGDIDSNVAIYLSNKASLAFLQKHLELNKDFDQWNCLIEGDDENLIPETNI

CCN1CCC(N(Cc2ccc(-c3ccc(Cl)cc3)cc2)C(=O)Cn2c(CCc3cccc(F)c3F)nc(=O)c3ccccc32)CC1.O=C(O)C(O)C(O)C(=O)O [Lp-PLA2 inhibitor '859, N-(1-ethylpiperidin-4-yl)-2-(2-(2-(2,3-difluorophenyl)-ethyl)-4-oxo-4H-quninazolin-1-yl)-N-(4′-chloro-biphenyl-4-ylmethyl)acetamide bitartrate] was tested, and the “plasma Lp-PLA2 activity” value (Lp-PLA2) was “significantly lower levels of Lp-PLA2 activity”, the “STZ-induced retinal thinning (neuroretinal thickness by OCT)” value [1] was “not statistically significantly different from vehicle only treated animals” and the “potency as inhibitor of rat Lp-PLA2 enzyme, relative” value (rat Lp-PLA2 enzyme) was “significantly less potent inhibitor”.
With lysophosphatidylcholine [lysoPC] the “transport of Lucifer yellow across endothelial monolayer” value [2] was “dose-dependent reduction in the transport of Lucifer yellow” and the “transendothelial electrical resistance (TEER)” value [3] was “reduction in the transendothelial electrical resistance”.
In the case of CCN(CC)CCN(Cc1ccc(-c2ccc(C(F)(F)F)cc2)cc1)C(=O)Cn1c(SCc2ccc(F)cc2)nc(=O)c2c1CCC2 [Darapladib, N-[2-(diethylamino)ethyl]-2-[[(4-fluorophenyl)methyl]thio]-4,5,6,7-tetrahydro-4-oxo-N-[[4′-(trifluoromethyl)[1,1′-biphenyl]-4-yl]methyl]-1H-cyclopentapyrimidine-1-acetamide], the “density of arteriolar leaks in the cortex (number of leaking arterioles per sq mm)” value [4] is reported as “reduced somewhat”, the “extent of vascular (BBB) leaks” value ([4]; 10 mg/kg/day) is reported as “effective at reducing the extent of leaks in all vessel types; also recorded: highly efficacious effect in reducing the permeability of the BBB; also recorded: somewhat reduced” and the “total amount of Abeta42 (Abeta42 load) in the cerebral cortex” value [5] is reported as “reduced amyloid deposition; also recorded: reduced the total amount of Abeta42”. For the same compound, the “density of Abeta42-positive neurons in cerebral cortex” value ([5]; entire brain) was “reduction in the number (density) of Abeta42 peptide positive neurones; also recorded: levels comparable to controls” and the “general wellness (activity and alertness)” value (DM/HC pigs) was “general wellness effect (increased activity and alertness)”.
